From US12398097B2, “WDR5-MYC inhibitors” (Vanderbilt University, priority 2019, dated 2025) come the findings set out here.

Structures are written as SMILES.

In this experiment the target is WDR5 (Homo sapiens, UniProt P61964). In words: Competition-based fluorescence polarization anisotropy assay. The settings on record: binding to WDR5; displacement of FITC-labeled small molecule probe (analogous to Example J2 or HCH-25) or peptide probe FITC-AHx-SEEEIDVVSV; pH 6.0; Ki converted from IC50. The essentials: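 Ki values derive from displacement of either a fluorescent small-molecule probe or a FITC-peptide probe from WDR5, monitored by fluorescence polarization. Assay run at pH 6.0 in 200 mM phosphate with 300 mM NaCl, 0.5 mM TCEP and 0.1% Chaps.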
In general terms: Polarisation of emitted light reports the rotation of a fluorescent probe.

Usually Ki stands for the equilibrium dissociation constant of an inhibitor or competing ligand from its target. Read a high Ki as a looser hold on the target. For the compound `O=C(NCC1(O)CCOCC1)c1cc(OC(F)(F)F)cc(NS(=O)(=O)c2cc(Br)cc(Cl)c2O)c1O` [HCH-53, 3-((5-Bromo-3-chloro-2-hydroxyphenyl)sulfonamido)-2-hydroxy-N-((4-hydroxytetrahydro-2H-pyran-4-yl)methyl)-5-(trifluoromethoxy)benzamide], affinity was put at a Ki of 170 nM.
With `O=C(NC1CC(O)C1)c1cc(OC(F)(F)F)cc(NS(=O)(=O)c2cc(Br)ccc2O)c1O` (mixture of isomers) [HCH-3, 3-((5-Bromo-2-hydroxyphenyl)sulfonamido)-2-hydroxy-N-(3-hydroxycyclobutyl)-5-(trifluoromethoxy)benzamide] the figure was 510 nM; with `CS(=O)(=O)c1cc(S(F)(F)(F)(F)F)cc(NS(=O)(=O)c2ccc(Br)cc2O)c1O` [Example S20, 4-Bromo-2-hydroxy-N-(2-hydroxy-3-(methylsulfonyl)-5-(pentafluoro-λ6-sulfaneyl)phenyl)benzenesulfonamide], 4300 nM.
The same measure for `N#CC1(c2cc(NS(=O)(=O)c3cc(Br)cc(Cl)c3O)c(O)c(C(=O)O)c2)CCC1` [Example J206, 3-((S-Bromo-3-chloro-2-hydroxyphenyl)sulfonamido)-5-(1-cyanocyclobutyl)-2-hydroxybenzoic acid]: 20 nM; for `O=C(O)c1c(O)c(NS(=O)(=O)c2cc(Br)ccc2O)cc(C2CC2)c1F` [Example J117, 3-((5-Bromo-2-hydroxyphenyl)sulfonamido)-5-cyclopropyl-6-fluoro-2-hydroxybenzoic acid]: 30 nM.
With `O=C(O)c1cc(C2CC2)cc(NS(=O)(=O)c2cc(Br)ccc2O)c1O` [Example J68, 3-((5-Bromo-2-hydroxyphenyl)sulfonamido)-5-cyclopropyl-2-hydroxybenzoic acid] the figure was 50 nM; with `O=C(O)c1cc(C2CC2)cc(NS(=O)(=O)c2cc(Br)cc(Cl)c2O)c1O` [Example J70, 3-((5-Bromo-3-chloro-2-hydroxyphenyl)sulfonamido)-5-cyclopropyl-2-hydroxybenzoic acid], 130 nM; with `CNC(=O)C(CO)NC(=O)c1cc(OC(F)(F)F)cc(NS(=O)(=O)c2cc(Br)ccc2O)c1O` (stereo not shown) [HCH-46, 3-((5-Bromo-2-hydroxyphenyl)sulfonamido)-2-hydroxy-N-(3-hydroxy-1-(methylamino)-1-oxopropan-2-yl)-5-(trifluoromethoxy)benzamide], 450 nM.
`CS(=O)(=O)c1cc(NS(=O)(=O)c2cc(Br)cc(Cl)c2O)cc(C2(C#N)CCC2)c1` [Example S72, 5-Bromo-3-chloro-N-(3-(1-cyanocyclobutyl)-5-(methylsulfonyl)phenyl)-2-hydroxybenzenesulfonamide] showed a Ki of 150 nM.
With `O=C(NCCO)c1cc(C2CC2)cc(NS(=O)(=O)c2cc(Br)ccc2O)c1O` [Example J87, 3-((5-Bromo-2-hydroxyphenyl)sulfonamido)-5-cyclopropyl-2-hydroxy-N-(2-hydroxyethyl)benzamide] the figure was 590 nM; with `O=C(O)c1cc(Cl)cc(NS(=O)(=O)c2cc(Br)ccc2O)c1O` [Example J1, 3-((5-Bromo-2-hydroxyphenyl)sulfonamido)-5-chloro-2-hydroxybenzoic acid], 90 nM.
The same measure for `COc1ccc(Br)cc1S(=O)(=O)Nc1cc(C2CC2)cc(C(=O)O)c1O` [Example J69, 3-((5-Bromo-2-methoxyphenyl)sulfonamido)-5-cyclopropyl-2-hydroxybenzoic acid]: 1940 nM; for `CCc1cc(Br)cc(S(=O)(=O)Nc2cc(Cl)cc(C(=O)O)c2O)c1O` [HCH-11, 3-((5-Bromo-3-ethyl-2-hydroxyphenyl)sulfonamido)-5-chloro-2-hydroxybenzoic acid]: 460 nM.
The same measure for `CS(=O)(=O)c1cc(Cl)cc(NS(=O)(=O)c2cc(Br)cc(Cl)c2O)c1` [Example S8, 5-Bromo-3-chloro-N-(3-chloro-5-(methylsulfonyl)phenyl)-2-hydroxybenzenesulfonamide]: 170 nM.
`N#CC1(c2cc(NS(=O)(=O)c3cc(Br)ccc3O)c(O)c(C(=O)N3CC(O)C3)c2)CCC1` [Example J224, 5-Bromo-N-(5-(1-cyanocyclobutyl)-2-hydroxy-3-(3-hydroxyazetidine-1-carbonyl)phenyl)-2-hydroxybenzenesulfonamide]: the Ki came to 290 nM.
With `COCCNC(=O)c1cc(C2(C#N)CCC2)cc(NS(=O)(=O)c2cc(Br)ccc2O)c1O` [Example J219, 3-((5-Bromo-2-hydroxyphenyl)sulfonamido)-5-(1-cyanocyclobutyl)-2-hydroxy-N-(2-methoxyethyl)benzamide] the figure was 440 nM.
With `C[C@@H](Nc1ccc(Br)cc1S(=O)(=O)Nc1cc(C2CC2)cc(C(=O)O)c1O)C1CC1` [Example J77, (R)-3-((5-Bromo-2-((1-cyclopropylethyl)amino)phenyl)sulfonamido)-5-cyclopropyl-2-hydroxybenzoic acid] the figure was 2870 nM; with `CN(C)CCNC(=O)c1cc(C2(C#N)CCC2)cc(NS(=O)(=O)c2cc(Br)ccc2O)c1O` [Example J226, 3-((5-Bromo-2-hydroxyphenyl)sulfonamido)-5-(1-cyanocyclobutyl)-N-(2-(dimethylamino)ethyl)-2-hydroxybenzamide], 1090 nM.
With `N#CC1(c2cc(NS(=O)(=O)c3cc(Br)ccc3O)c(O)c(C(=O)NCCN3CCOCC3)c2)CCC1` [Example J225, 3-((5-Bromo-2-hydroxyphenyl)sulfonamido)-5-(1-cyanocyclobutyl)-2-hydroxy-N-(2-morpholinoethyl)benzamide] the figure was 860 nM; with `COCCNC(=O)c1cc(Cl)cc(NS(=O)(=O)c2cc(Br)ccc2O)c1O` [Example J15, 3-((5-Bromo-2-hydroxyphenyl)sulfonamido)-5-chloro-2-hydroxy-N-(2-methoxyethyl)benzamide], 610 nM; with `CCc1cc(NS(=O)(=O)c2cc(Br)ccc2O)c(O)c(C(=O)O)c1` [HCH-18, 3-((5-Bromo-2-hydroxyphenyl)sulfonamido)-5-ethyl-2-hydroxybenzoic acid], 60 nM.
`N#CC1(c2ccc(O)c(NS(=O)(=O)c3cc(Br)ccc3O)c2)CCCC1` [JDM-06-030A, 5-Bromo-N-(5-(1-cyanocyclopentyl)-2-hydroxyphenyl)-2-hydroxybenzenesulfonamide] showed a Ki of 610 nM.
The same measure for `NC(=O)c1cc(OC(F)(F)F)cc(NS(=O)(=O)c2cc(Br)cc(Cl)c2O)c1O` [HCH-62, 3-((5-Bromo-3-chloro-2-hydroxyphenyl)sulfonamido)-2-hydroxy-5-(trifluoromethoxy)benzamide]: 330 nM.
`CNC(=O)c1cc(Cl)cc(NS(=O)(=O)c2cc(Br)ccc2OC)c1O` [Example J44, 3-((5-Bromo-2-methoxyphenyl)sulfonamido)-5-chloro-2-hydroxy-N-methylbenzamide] registered an inhibitory constant (Ki) of 1260 nM.
With `O=C(O)c1cc(Cl)cc(NS(=O)(=O)c2cc(Cl)c(Cl)cc2O)c1O` [Example J11, 5-Chloro-3-((4,5-dichloro-2-hydroxyphenyl)sulfonamido)-2-hydroxybenzoic acid] the figure was 2490 nM; with `O=C(O)c1cc(OC(F)(F)F)cc(NS(=O)(=O)c2cc(Br)cc(OC(F)(F)F)c2O)c1O` [HCH-15, 3-((5-Bromo-2-hydroxy-3-(trifluoromethoxy)phenyl)sulfonamido)-2-hydroxy-5-(trifluoromethoxy)benzoic acid], 170 nM.
The same measure for `CCc1cc(Br)cc(S(=O)(=O)Nc2cc(Cl)cc(C(=O)NCC3(O)CCN(C)CC3)c2O)c1O` [HCH-2, 3-((5-Bromo-3-ethyl-2-hydroxyphenyl)sulfonamido)-5-chloro-2-hydroxy-N-((4-hydroxy-1-methylpiperidin-4-yl)methyl)benzamide]: 600 nM; for `COc1ccc(Br)cc1S(=O)(=O)Nc1cc(C2(C#N)CCC2)cc(C(=O)O)c1O` [Example J205, 3-((5-Bromo-2-methoxyphenyl)sulfonamido)-5-(1-cyanocyclobutyl)-2-hydroxybenzoic acid]: 50 nM; for `CN(CC1CCCO1)C(=O)c1cc(Cl)cc(NS(=O)(=O)c2cc(Br)ccc2O)c1O` (stereo not shown) [Example J37, 3-((5-Bromo-2-hydroxyphenyl)sulfonamido)-5-chloro-2-hydroxy-N-methyl-N-((tetrahydrofuran-2-yl)methyl)benzamide]: 3780 nM.
As to `CNC(=O)c1cc(NS(=O)(=O)c2cc(Br)cc(Cl)c2O)cc(C2CC2)c1F` [Example J151, 5-((5-Bromo-3-chloro-2-hydroxyphenyl)sulfonamido)-3-cyclopropyl-2-fluoro-N-methylbenzamide], the Ki came out at 210 nM.
With `O=C(N[C@H]1CCOC1)c1cc(C2CC2)cc(NS(=O)(=O)c2cc(Br)cc(Cl)c2O)c1O` [Example J97, (S)-3-((5-Bromo-3-chloro-2-hydroxyphenyl)sulfonamido)-5-cyclopropyl-2-hydroxy-N-(tetrahydrofuran-3-yl)benzamide] the figure was 140 nM.
The same measure for `CNS(=O)(=O)c1cc(Cl)cc(NS(=O)(=O)c2cc(Br)ccc2O)c1O` [Example S29, 5-bromo-N-(5-chloro-2-hydroxy-3-(N-methylsulfamoyl)phenyl)-2-hydroxybenzenesulfonamide]: 15500 nM; for `O=C(N[C@@H]1CCOC1)c1c(O)c(NS(=O)(=O)c2cc(Br)ccc2O)cc(C2CC2)c1F` [Example J132, (R)-3-((5-Bromo-2-hydroyphenyl)sulfonamido)-5-cyclopropyl-6-fluoro-2-hydroxy-N-(tetrahydrofuran-3-yl)benzamide]: 2450 nM; for `COC[C@@H]1CCCN1C(=O)c1cc(OC(F)(F)F)cc(NS(=O)(=O)c2cc(Br)ccc2O)c1O` [Example J171, (S)-5-Bromo-2-hydroxy-N-(2-hydroxy-3-(2-(methoxymethyl)pyrrolidine-1-carbonyl)-5-(trifluoromethoxy)phenyl)benzenesulfonamide]: 1040 nM.
